This passage reports TGI and GI50 results from PubChem BioAssay (NCI).

Common to all, as to experiment: NCI tumour cell line growth inhibition, 48 h
Assay [1] relates to XF 498 CNS.
For assay [2], the system named is DLD-1 colon.
In assay [3] the test system is RXF-631 renal.
Assay [4] concerns SNB-78 CNS.
The subject of assay [5] is LXFL 529 NSCLC.
Assay [6] has as its system DMS 114 small cell lung.
Assay [7] relates to P388 leukemia.
The subject of assay [8] is P388/ADR leukemia.
The subject of assay [9] is T-47D breast.

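Values below derive from 48-hour exposures of cells grown in 96-well plates, with endpoints linearly interpolated between the two concentrations bracketing the appropriate inhibition level. The concentration for 50% growth inhibition is given as GI50. TGI: concentration producing complete growth inhibition.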 Bounds are passed on as bounds.

As to `CC1=C(C(=O)CC(=O)C(=O)Nc2ccccc2)Sc2ccccc2N1`, the TGI in assay [1], in assay [2], in [3], in assay [4], in assay [5] and in [6] was > 100 µM each time.
Turning to `CCC[CH2][Ge]([CH2]CCC)([CH2]CCC)[O]C(=O)C(OC)c1ccccc1` (centres undefined), the GI50 in [1] was 41.1 µM; in [2], 23.7 µM; in assay [3], 29.4 µM; in assay [4], > 100 µM; in assay [5], 15.6 µM; in [6] it was 7.56 µM. Further, the TGI in assay [1] was > 100 µM; in assay [2], > 100 µM; in assay [3] it was > 100 µM; in assay [4], > 100 µM; in [5], > 100 µM; in [6], 34.4 µM.
On to `COc1c(NC(=O)CC(C)=O)[c]([Hg][O]C(C)=O)c(OC)c(Cl)[c]1[Hg][O]C(C)=O`, for which the GI50 is 2.55 µM in assay [1]; 14.2 µM in assay [2]; 3.02 µM in assay [3]; 15.5 µM in assay [4]; 2.63 µM in assay [5]; 1.61 µM in assay [6]. Further, the TGI in [1] came out at 6.41 µM; in [2] it was 32.6 µM; in assay [3], 13.7 µM; in assay [4], 34.2 µM; in assay [5], 11.1 µM; in [6], 13.5 µM.
On to `CC(=O)OCC1OC(n2c(=O)n(-c3ccccc3)c(=O)c3cc(Br)cc(Br)c32)C(OC(C)=O)C(OC(C)=O)C1OC(C)=O` (centres undefined), for which the TGI in [1], in assay [2], in assay [3], in [4], in [5] and in [6] was > 100 µM each time.
For `CCOC(=O)[C@H]1Nc2ccc(Cl)cc2[C@H]2OCC[C@@H]12`, the TGI in assay [1], in assay [2], in [3], in assay [4], in [5] and in assay [6] was > 100 µM each time.
For the molecule `COc1ccc2nc(NC(=O)C(=O)C(C(=O)c3ccccc3-c3ccccc3)C3OC(=O)c4ccccc43)sc2c1` (centres undefined), the TGI in [1] is 45.7 µM; in assay [2] it was 40.9 µM; in assay [3], 71.6 µM; in [4], > 100 µM; in assay [5], 26.3 µM; in [6] it was 37.2 µM.
As to `COc1cc([C@@H]2c3cc4c(cc3[C@@H](NCc3ccccc3)C3COC(=O)[C@@H]32)OCO4)cc(OC)c1O` (some centres undefined), the TGI is 41 µM in assay [1]; > 100 µM in [2]; 30.2 µM in assay [3]; > 100 µM in [4]; > 100 µM in [5]; > 64.5 µM in assay [6].
With `CCC[CH2][Sn]([CH2]CCC)([O]C(=O)c1cc(OC)c(OC)cc1OC)[O]C(=O)c1cc(OC)c(OC)cc1OC`, the GI50 is 0.767 µM in assay [1]; 1.51 µM in assay [2]; 1.37 µM in [3]; 0.68 µM in assay [4]; 0.346 µM in assay [5]; 0.492 µM in assay [6]. Further, the TGI in assay [1] came to 2.16 µM; in assay [2], 2.92 µM; in assay [3] it was 2.93 µM; in assay [4], 2.41 µM; in [5] it was 1.22 µM; in assay [6], 1.95 µM.
On to `Nc1ncnc2c(C3OC(CO)C(O)C3O)[nH]nc12` (centres undefined), for which the TGI was 51.7 µM in assay [7]; 123 µM in assay [8]; 1.34 µM in assay [1]; 10.8 µM in assay [2]; 40.4 µM in [4]; 1.36 µM in [6]. For the same molecule, in [9], the TGI is 1.57 µM. For the same molecule, in assay [9], the GI50 was 0.0308 µM.
Regarding `Cc1ccccc1-c1c(N)nc(N)nc1C(=O)Nc1nccs1`, the TGI in assay [1], in assay [2], in assay [3], in [4], in [5] and in assay [6] was > 100 µM in each case.
With `CCC[CH2][Ge]([CH2]CCC)([CH2]CCC)[O]C(=O)C(O)c1ccccc1` (centres undefined), the TGI is 4.92 µM in assay [1]; 21.9 µM in assay [2]; 31.9 µM in assay [3]; 38.8 µM in [4]; 21.4 µM in [5]; 7.19 µM in assay [6]. In addition, the GI50 in [2] was 1.99 µM; in assay [3], 5.7 µM; in [4], 3.04 µM; in [5], 1.29 µM; in [6], 0.284 µM.
As to `Cc1ccc(S(=O)(=O)SCc2ccccc2CSS(=O)(=O)c2ccc(C)cc2)cc1`, the TGI was 47.4 µM in assay [1]; 30 µM in assay [2]; > 100 µM in [3]; > 100 µM in assay [4]; 32.6 µM in assay [5]; > 100 µM in [6].
For the molecule `CCC1(C(=O)OC)CCc2c(OC)ccc(OC)c2C1=O` (centres undefined), the TGI in [1], in [2], in assay [3], in [4], in assay [5] and in assay [6] was > 100 µM throughout.
As to `Cc1ccc(C2(O)CC(c3ccc([N+](=O)[O-])o3)=NN2C(=O)COc2ccccc2Cl)cc1` (centres undefined), the TGI is > 100 µM in assay [1]; > 100 µM in assay [2]; > 55.1 µM in [3]; > 100 µM in assay [4]; 49.2 µM in assay [5]; 80.7 µM in [6].
